The labels stand for the following.
B1: m7GpppCmpG (XNA)
strand: GCG
modifications: m7G1; 5'-5' triphosphate between G1 and C2; 2'-O-methyl C2
B2: m7GpppGmpG (XNA)
strand: GGG
modifications: m7G1; 5'-5' triphosphate between G1 and G2; 2'-O-methyl G2
B3: m7GpppAmpG (XNA)
strand: GAG
modifications: m7G1; 5'-5' triphosphate between G1 and A2; 2'-O-methyl A2

Sequence of eIF4E (28-217) (P63073 28-217): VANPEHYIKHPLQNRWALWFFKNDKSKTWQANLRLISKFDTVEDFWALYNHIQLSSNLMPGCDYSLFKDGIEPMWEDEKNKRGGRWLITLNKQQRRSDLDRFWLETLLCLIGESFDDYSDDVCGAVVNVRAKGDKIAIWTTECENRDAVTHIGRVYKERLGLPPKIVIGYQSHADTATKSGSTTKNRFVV

For one data set, the target named is Murine eukaryotic translation initiation factor 4E (eIF4E, residues 28–217); meIF4E (Mus musculus, UniProt P63073). Briefly: time-synchronized fluorescence quenching titration. It counts as binding.
Sequence of Murine eukaryotic translation initiation factor 4E (eIF4E, residues 28–217); meIF4E (P63073 28-217): as above
A word on the Kd: it is the constant that tells how readily two partners part at equilibrium. High values mean a looser complex, low ones a tighter complex. `C[n+]1cn([C@@H]2O[C@H](COP(=O)(O)OP(=O)(O)OP(=O)(O)OC[C@H]3O[C@@H](n4ccc(N)nc4=O)[C@H](O)[C@@H]3OP(=O)(O)OC[C@H]3O[C@@H](n4cnc5c(=O)[nH]c(N)nc54)[C@H](O)[C@@H]3O)[C@@H](O)[C@H]2O)c2nc(N)[nH]c(=O)c21` [m^7GpppCpG] gave a Kd of 25.1 ± 0.6 nM.

Turning to `C[n+]1cn([C@@H]2O[C@H](COP(=O)(O)OP(=O)(O)OP(=O)(O)OC[C@H]3O[C@@H](n4cnc5c(N)ncnc54)[C@H](O)[C@@H]3OP(=O)(O)OC[C@H]3O[C@@H](n4cnc5c(=O)[nH]c(N)nc54)[C@H](O)[C@@H]3O)[C@@H](O)[C@H]2O)c2nc(N)[nH]c(=O)c21` [m^7GpppApG], the Kd was found to be 26.6 ± 0.9 nM. In turn, `CNc1ncnc2c1ncn2[C@@H]1O[C@H](COP(=O)(O)OP(=O)(O)OP(=O)(O)OC[C@H]2O[C@@H](n3c[n+](C)c4c(=O)[nH]c(N)nc43)[C@H](O)[C@@H]2O)[C@@H](OP(=O)(O)OC[C@H]2O[C@@H](n3cnc4c(=O)[nH]c(N)nc43)[C@H](O)[C@@H]2O)[C@H]1O` [m^7Gppp^m6ApG] returned a Kd of 35.2 ± 0.8 nM. This Kd and that of the molecule before are within 1.5-fold of each other. As to `CNc1ncnc2c1ncn2[C@@H]1O[C@H](COP(=O)(O)OP(=O)(O)OP(=O)(O)OC[C@H]2O[C@@H](n3c[n+](C)c4c(=O)[nH]c(N)nc43)[C@H](O)[C@@H]2O)[C@@H](OP(=O)(O)OC[C@H]2O[C@@H](n3cnc4c(=O)[nH]c(N)nc43)[C@H](O)[C@@H]2O)[C@H]1OC` [m^7Gppp^m6AmpG], binding was put at a Kd of 32.8 ± 0.8 nM. As for `C[n+]1cn([C@@H]2O[C@H](COP(=O)(O)OP(=O)(O)OP(=O)(O)OC[C@H]3O[C@@H](n4cnc5c(N)ncnc54)[C@H](O)[C@@H]3O)[C@@H](O)[C@H]2O)c2nc(N)[nH]c(=O)c21` [m^7GpppA], the Kd amounted to 178 ± 4.3 nM.

In turn, `C[n+]1cn([C@@H]2O[C@H](COP(=O)(O)OP(=O)(O)OP(=O)(O)OC[C@H]3O[C@@H](n4cnc5c(=O)[nH]c(N)nc54)[C@H](O)[C@@H]3OP(=O)(O)OC[C@H]3O[C@@H](n4cnc5c(=O)[nH]c(N)nc54)[C@H](O)[C@@H]3O)[C@@H](O)[C@H]2O)c2nc(N)[nH]c(=O)c21` [m^7GpppGpG] displayed a Kd of 22.7 ± 0.9 nM.

The next data set addresses eIF4E (28-217) (Mus musculus (murine), UniProt P63073 28-217). Briefly: fluorescence quenching titration.
Turning to B1, the affinity, expressed as Kd, was 29.9 ± 0.7 nM. Molecule B2 gave a Kd of 22.8 ± 0.6 nM. The same measure, in the same setting: to B3 belongs 45.6 ± 1.5 nM.
